Read-outs that look alike come from different tables or passages of the source.
Experiments:
[1] = system: soluble epoxide hydrolase (sEH); assay: Baboon [^18F]FNDP dynamic PET, baseline scans with kinetic modelling (2TCM, 1TCM, Logan); format: in vivo, baboon (Papio anubis)
Method: (§1) PET images were acquired using a CPS/CTI high-resolution research tomograph (HRRT), which has an axial resolution (FWHM) of 2.4 mm and in-plane resolution of 2.4–2.8 mm. […] These blocking studies were performed 27 to 43 days apart from each other to ensure full animal recovery. The animals had no food for 12 h prior to each PET study. Anesthesia was induced with intramuscular ketamine (7.5–10 mg/kg) and maintained with a continuous intravenous infusion of propofol at 0.3–0.4 mg/kg/min throughout the PET experiment. One venous catheter was inserted for the radioligand injection, and one arterial catheter was inserted to obtain arterial blood samples. Baboons were intubated to facilitate respiration, and circulatory volume was maintained by constant infusion of isotonic saline. Physiological vital signs including heart rate, blood pressure, electrocardiogram, and oxygen saturation were monitored continuously throughout the study.
(§2) The animals were positioned in the PET scanner with the head immobilized using a thermoplastic mask. A 6-min transmission scan was acquired using a rotating ^137Cesium source for generating attenuation maps. The 90-min dynamic PET acquisition was then started in three-dimensional list mode simultaneously with an intravenous bolus injection of [^18F]FNDP. […]
(§3) Measurement of the arterial plasma input function was conducted through collection of ~ 40 blood samples over the course of the 90-min dynamic PET study. […] Samples were then centrifuged at 1200 × g, and the plasma radioactivity was measured with a cross-calibrated PerkinElmer Wizard 2480 automatic gamma counter.
(§4) The 90 min of PET data were binned into 30 frames: four 15-s, four 30-s, three 1-min, two 2-min, five 4 -min, and 12 5-min frames. Images were reconstructed using the 3D iterative ordered subset expectation maximization (OS-EM) algorithm (with six iterations and 16 subsets) with correction for radioactive decay, deadtime, attenuation, scatter, and randoms. The reconstructed image space consisted of cubic voxels, each 1.22 mm^3 in size, and spanning dimensions of 31 cm × 31 cm (transaxially) and 25 cm (axially).
(§5) The software package PMOD (v3.7, PMOD Technologies Ltd, Zurich, Switzerland) was used for the image processing and subsequent kinetic analysis. The previously acquired T1-weighted brain MRI images for the baboon were co-registered to the reconstructed dynamic PET images acquired in this study. Through manually matching the co-registered MRI to the INIA19 Template and NeuroMaps Atlas for Primate Brain Image Parcellation and Spatial Normalization, 13 representative baboon brain volumes of interest (VOIs) were defined, […] Regional time activity curves (TACs) were then generated for both baseline and blocking PET scans using those VOIs.
(§6) Next, kinetic modeling was performed based on the TACs and the metabolite-corrected arterial plasma input functions. For brain uptake, the primary outcome measure was the regional brain distribution volume (VT) of [^18F]FNDP, defined as concentration of the radiotracer in regional tissue relative to that in blood at equilibrium. We evaluated which compartmental models (e.g., two-tissue-three-compartment (2TCM) or one-tissue-two-compartment (1TCM)) best described the [^18F]FNDP PET data, using statistical model selection criteria, such as the Akaike information criterion. For comparison, the Logan graphical method (t* = 30 min) was also used to compute regional VT, as well as generating voxel-wise parametric images of VT [31].

[2] = as above; format: in vivo, baboon (Papio anubis); settings: male, baboon (Papio anubis), intravenous, baseline, mean ± SD of 3 baboons
Method: as §1, §2, §3, §4, §5, §6

[3] = design: method as in PMID 27417650; settings: mouse brain; cited from earlier work
[4] = Amygdala, baseline, mean ± SD of 3 baboons
[5] = Caudate, baseline, mean ± SD of 3 baboons
[6] = Cerebellum, baseline, mean ± SD of 3 baboons
[7] = Corpus callosum, baseline, mean ± SD of 3 baboons
[8] = Frontal gyrus, baseline, mean ± SD of 3 baboons
[9] = Globus pallidus, baseline, mean ± SD of 3 baboons
[10] = Hippocampus, baseline, mean ± SD of 3 baboons
[11] = Hypothalamus, baseline, mean ± SD of 3 baboons
[12] = Insula, baseline, mean ± SD of 3 baboons
[13] = Occipital cortex, baseline, mean ± SD of 3 baboons
[14] = Putamen, baseline, mean ± SD of 3 baboons
[15] = Temporal gyrus, baseline, mean ± SD of 3 baboons
[16] = Thalamus, baseline, mean ± SD of 3 baboons
[17] = White matter, baseline, mean ± SD of 3 baboons

With `O=C(NCCC(c1ccccc1)c1ccccc1)c1ccc([18F])nc1` [[^18F]FNDP, N-(3,3-diphenylpropyl)-6-^18F-fluoronicotinamide] the “1TCM K1” value [1, 4] was 0.14 ± 0.03 mL/cm^3/min, the “2TCM K1” value [1, 4] was 0.14 ± 0.03 mL/cm^3/min and the “1TCM K1” value [1, 5] was 0.21 ± 0.05 mL/cm^3/min. The “2TCM K1” value [1, 5] was 0.21 ± 0.05 mL/cm^3/min, the “1TCM K1” value [1, 6] was 0.18 ± 0.03 mL/cm^3/min and the “2TCM K1” value [1, 6] was 0.19 ± 0.03 mL/cm^3/min. The “1TCM K1” value [1, 7] was 0.15 ± 0.03 mL/cm^3/min, the “2TCM K1” value [1, 7] was 0.17 ± 0.03 mL/cm^3/min and the “1TCM K1” value [1, 8] was 0.16 ± 0.04 mL/cm^3/min. For the same compound, the “2TCM K1” value [1, 8] was 0.18 ± 0.04 mL/cm^3/min, the “1TCM K1” value [1, 9] was 0.17 ± 0.03 mL/cm^3/min and the “2TCM K1” value [1, 9] was 0.19 ± 0.03 mL/cm^3/min. The “1TCM K1” value [1, 10] was 0.14 ± 0.03 mL/cm^3/min, the “2TCM K1” value [1, 10] was 0.15 ± 0.04 mL/cm^3/min and the “1TCM K1” value [1, 11] was 0.14 ± 0.03 mL/cm^3/min. For the same compound, the “2TCM K1” value [1, 11] was 0.15 ± 0.03 mL/cm^3/min, the “1TCM K1” value [1, 12] was 0.20 ± 0.05 mL/cm^3/min and the “2TCM K1” value [1, 12] was 0.22 ± 0.05 mL/cm^3/min. For the same compound, the “1TCM K1” value [1, 13] was 0.17 ± 0.06 mL/cm^3/min, the “2TCM K1” value [1, 13] was 0.18 ± 0.06 mL/cm^3/min and the “1TCM K1” value [1, 14] was 0.22 ± 0.05 mL/cm^3/min. The “2TCM K1” value [1, 14] was 0.23 ± 0.05 mL/cm^3/min, the “1TCM K1” value [1, 15] was 0.16 ± 0.03 mL/cm^3/min and the “2TCM K1” value [1, 15] was 0.17 ± 0.03 mL/cm^3/min. For the same compound, the “1TCM K1” value [1, 16] was 0.16 ± 0.03 mL/cm^3/min, the “2TCM K1” value [1, 16] was 0.17 ± 0.03 mL/cm^3/min and the “1TCM K1” value [1, 17] was 0.17 ± 0.04 mL/cm^3/min. The “2TCM K1” value [1, 17] was 0.18 ± 0.04 mL/cm^3/min, the “time of peak of regional brain TACs post-injection” value ([1]; all regions at baseline) was < 15 min and the “K1 (2TCM)” value ([1]; baseline scan, Baboon3) was 0.151 ± 0.021 mL/cm^3/min. It also gave a Kp ([1]; male, baboon (Papio anubis), brain (cerebellum), intravenous, Cerebellum, baseline, mean ± SD of 3 baboons, read-out: 1TCM VT) of 7.33 ± 0.45, a Kp ([1]; male, baboon (Papio anubis), brain (cerebellum), intravenous, Cerebellum, baseline, mean ± SD of 3 baboons, read-out: 2TCM VT) of 7.66 ± 0.72 and a Kp ([1]; male, baboon (Papio anubis), brain (globus pallidus), intravenous, Globus pallidus, baseline, mean ± SD of 3 baboons, read-out: 1TCM VT) of 9.07 ± 0.66. It also gave a Kp ([1]; male, baboon (Papio anubis), brain (globus pallidus), intravenous, Globus pallidus, baseline, mean ± SD of 3 baboons, read-out: 2TCM VT) of 9.74 ± 1.02, a Kp ([1]; male, baboon (Papio anubis), brain (globus pallidus), intravenous, Globus pallidus, baseline, mean ± SD of 3 baboons, read-out: Logan VT) of 9.44 ± 0.92 and a Kp ([1]; male, baboon (Papio anubis), brain (occipital cortex), intravenous, Occipital cortex, baseline, mean ± SD of 3 baboons, read-out: 1TCM VT) of 7.39 ± 1.56. The Kp ([1]; male, baboon (Papio anubis), brain (occipital cortex), intravenous, Occipital cortex, baseline, mean ± SD of 3 baboons, read-out: 2TCM VT) was 7.82 ± 1.82, the Kp ([1]; male, baboon (Papio anubis), brain (occipital cortex), intravenous, Occipital cortex, baseline, mean ± SD of 3 baboons, read-out: Logan VT) was 7.67 ± 1.63 and the total distribution volume (VT, Logan) ([1]; male, baboon (Papio anubis), brain (range over regions), intravenous, baseline, 3 baboons) was 7.63 to 13.3. The Kp ([1]; male, baboon (Papio anubis), brain (white matter), intravenous, White matter, baseline, mean ± SD of 3 baboons, read-out: 1TCM VT) was 8.43 ± 0.89, the Kp ([1]; male, baboon (Papio anubis), brain (white matter), intravenous, White matter, baseline, mean ± SD of 3 baboons, read-out: 2TCM VT) was 9.29 ± 1.08 and the Kp ([1]; male, baboon (Papio anubis), brain (white matter), intravenous, White matter, baseline, mean ± SD of 3 baboons, read-out: Logan VT) was 9 ± 1.03. The Kp ([1]; male, baboon (Papio anubis), brain, corpus callosum, intravenous, Corpus callosum, baseline, mean ± SD of 3 baboons, read-out: 1TCM VT) was 8.32 ± 0.91, the Kp ([1]; male, baboon (Papio anubis), brain, corpus callosum, intravenous, Corpus callosum, baseline, mean ± SD of 3 baboons, read-out: 2TCM VT) was 9.28 ± 0.9 and the Kp ([1]; male, baboon (Papio anubis), brain, corpus callosum, intravenous, Corpus callosum, baseline, mean ± SD of 3 baboons, read-out: Logan VT) was 9.06 ± 0.99. It also gave a Kp ([1]; male, baboon (Papio anubis), brain, frontal gyrus, intravenous, Frontal gyrus, baseline, mean ± SD of 3 baboons, read-out: 1TCM VT) of 9.58 ± 0.6, a Kp ([1]; male, baboon (Papio anubis), brain, frontal gyrus, intravenous, Frontal gyrus, baseline, mean ± SD of 3 baboons, read-out: 2TCM VT) of 10.5 ± 1.01 and a Kp ([1]; male, baboon (Papio anubis), brain, frontal gyrus, intravenous, Frontal gyrus, baseline, mean ± SD of 3 baboons, read-out: Logan VT) of 10.3 ± 0.91. It also gave a Kp ([1]; male, baboon (Papio anubis), brain, intravenous, baboon brain, baseline, read-out: baseline VT) of 10.9 ± 2.4, a Kp ([1]; male, baboon (Papio anubis), brain, temporal gyrus, intravenous, Temporal gyrus, baseline, mean ± SD of 3 baboons, read-out: Logan VT) of 9.52 ± 0.57 and a Kp ([2]; brain: amygdala, Amygdala, read-out: 1TCM VT) of 10.5 ± 0.81. It also gave a Kp ([2]; brain: amygdala, Amygdala, read-out: 2TCM VT) of 12.5 ± 2.47, a Kp ([2]; brain: amygdala, Amygdala, read-out: Logan VT) of 12 ± 1.63 and a Kp ([2]; brain: caudate, Caudate, read-out: 1TCM VT) of 12.9 ± 1.44. It also gave a Kp ([2]; brain: caudate, Caudate, read-out: 2TCM VT) of 13.9 ± 2.28, a Kp ([2]; brain: caudate, Caudate, read-out: Logan VT) of 13.3 ± 1.94 and a Kp ([2]; brain: cerebellum, Cerebellum, read-out: Logan VT) of 7.63 ± 0.58. The Kp ([2]; brain: hippocampus, Hippocampus, read-out: 1TCM VT) was 10.3 ± 1.55, the Kp ([2]; brain: hippocampus, Hippocampus, read-out: 2TCM VT) was 11.5 ± 2.61 and the Kp ([2]; brain: hippocampus, Hippocampus, read-out: Logan VT) was 11 ± 1.96. For the same compound, the Kp ([2]; brain: hypothalamus, Hypothalamus, read-out: 1TCM VT) was 7.77 ± 0.35, the Kp ([2]; brain: hypothalamus, Hypothalamus, read-out: 2TCM VT) was 8.32 ± 0.57 and the Kp ([2]; brain: hypothalamus, Hypothalamus, read-out: Logan VT) was 8.08 ± 0.44. It also gave a Kp ([2]; brain: insula, Insula, read-out: 1TCM VT) of 12.1 ± 1.08, a Kp ([2]; brain: insula, Insula, read-out: 2TCM VT) of 13.8 ± 1.42 and a Kp ([2]; brain: insula, Insula, read-out: Logan VT) of 12.8 ± 1.32. The Kp ([2]; brain: putamen, Putamen, read-out: 1TCM VT) was 12.9 ± 1.54, the Kp ([2]; brain: putamen, Putamen, read-out: 2TCM VT) was 13.8 ± 2.27 and the Kp ([2]; brain: putamen, Putamen, read-out: Logan VT) was 13.3 ± 1.81. The Kp ([2]; brain: temporal gyrus, Temporal gyrus, read-out: 1TCM VT) was 9.05 ± 0.41, the Kp ([2]; brain: temporal gyrus, Temporal gyrus, read-out: 2TCM VT) was 9.77 ± 1.02 and the Kp ([2]; brain: thalamus, Thalamus, read-out: 1TCM VT) was 7.42 ± 0.36. For the same compound, the Kp ([2]; brain: thalamus, Thalamus, read-out: 2TCM VT) was 7.9 ± 0.74, the Kp ([2]; brain: thalamus, Thalamus, read-out: Logan VT) was 7.87 ± 0.55 and the “brain uptake, injected dose per gram of tissue” value [3] was 5 % ID/g.
